Data taken from patent US20260176320A1, “MODULATORS OF G-PROTEIN COUPLED RECEPTORS” (priority 2018, published 2026).
Like-named read-outs stand apart in the source and are kept apart here. Numbered stars: 1 amine (or outer) side, 2 acyl side, 3 side chain; on linkers, the order of the positions; unused ones are H or OH. Square brackets hold non-standard residues; d marks the D form. Side chains are listed from the residue outwards. Peptide text beside a SMILES is read from it. * marks the point of attachment. γGlu = O=C(O)[C@H](CCC(=O)[*:2])N[*:1]; X2 = O=C(CSCC(=O)*)NCCN1C(=O)CSC1=O; Palmitoyl = CCCCCCCCCCCCCCCC(=O)*; Aib = CC(C)(N)C(=O)O

Assays:
[1] = target: GLP-1R (Homo sapiens, UniProt P43220); assay: HitHunter cAMP assay (GLP-1R); assay type: cell-based; details: cAMP; for Emax: read-out: (Emax) GLP-1R
Procedure, shortened: (§1)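 Suspension cells expressing each receptor (10,000 per well) in HBSS with 10 mM HEPES, 625 μM IBMX and 0.2% BSA were treated with a 22-point 2-fold agonist series in duplicate for 30 minutes at room temperature. cAMP was detected by antibody immunocompetition with luminescence read after overnight incubation.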

[2] = target: T1, GIP-R (Homo sapiens, UniProt P48546); assay: HitHunter cAMP assay (GIP-R); assay type: cell-based; details: cAMP; for Emax: read-out: (Emax) GIP-R
T1 sequence (P48546 22-466): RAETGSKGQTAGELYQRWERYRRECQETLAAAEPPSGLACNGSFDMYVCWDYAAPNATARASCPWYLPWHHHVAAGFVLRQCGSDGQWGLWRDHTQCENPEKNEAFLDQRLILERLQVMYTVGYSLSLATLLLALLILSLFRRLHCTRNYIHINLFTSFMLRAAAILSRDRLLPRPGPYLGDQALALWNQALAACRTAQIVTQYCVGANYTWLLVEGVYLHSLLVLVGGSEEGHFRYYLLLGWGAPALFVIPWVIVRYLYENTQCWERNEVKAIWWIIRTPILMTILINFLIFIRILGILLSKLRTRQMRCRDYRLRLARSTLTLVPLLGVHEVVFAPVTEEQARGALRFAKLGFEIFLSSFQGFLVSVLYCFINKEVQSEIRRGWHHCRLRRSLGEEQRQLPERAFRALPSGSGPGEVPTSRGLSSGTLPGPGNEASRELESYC
Procedure, shortened: as §1

[3] = Table 3, read-out: EC50 GLP-1R/nM
[4] = Table 3A, read-out: EC50 GLP-1R/nM
[5] = Table 3, read-out: EC50 GIP-R/nM
[6] = Table 3A, read-out: EC50 GIP-R/nM

Sequence of GLP-1R (P43220 24-463): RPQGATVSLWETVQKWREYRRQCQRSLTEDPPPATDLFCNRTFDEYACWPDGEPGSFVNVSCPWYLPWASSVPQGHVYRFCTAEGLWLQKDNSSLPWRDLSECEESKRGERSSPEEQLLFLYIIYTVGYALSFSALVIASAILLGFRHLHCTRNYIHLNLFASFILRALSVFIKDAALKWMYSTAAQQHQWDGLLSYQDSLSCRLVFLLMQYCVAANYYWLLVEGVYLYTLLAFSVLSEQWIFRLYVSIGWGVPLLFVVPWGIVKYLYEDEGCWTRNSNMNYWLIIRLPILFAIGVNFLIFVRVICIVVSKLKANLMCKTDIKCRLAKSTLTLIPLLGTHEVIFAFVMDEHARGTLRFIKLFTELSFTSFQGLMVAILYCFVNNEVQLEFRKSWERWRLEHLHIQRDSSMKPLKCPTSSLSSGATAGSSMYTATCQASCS

| Compound | Emax ([1]; Table 3) | EC50 [1, 3] | Emax ([1]; Table 3A) | EC50 [1, 4] | Emax ([2]; Table 3) | EC50 [2, 5] | Emax ([2]; Table 3A) | EC50 [2, 6] | EC50 ([1]; EC50 GLP-1R/nM, Table 3) | EC50 ([1]; EC50 GLP-1R/nM, Table 3A) | EC50 ([2]; EC50 GIP-R/nM, Table 3) | EC50 ([2]; EC50 GIP-R/nM, Table 3A) |
| --- | --- | --- | --- | --- | --- | --- | --- | --- | --- | --- | --- | --- |
| CCCCCCCCCCCCCCCC(=O)N[C@@H](CCC(=O)NCCCC[C@H](NC(=O)[C@H](CO)NC(=O)[C@@H]1CCCN1C(=O)[C@@H]1CCCN1C(=O)[C@@H]1CCCN1C(=O)[C@H](C)NC(=O)CNC(=O)[C@H](CO)NC(=O)[C@H](CO)NC(=O)[C@@H]1CCCN1C(=O)CNC(=O)CNC(=O)[C@H](C)NC(=O)[C@H](CC(C)C)NC(=O)[C@H](CC(C)C)NC(=O)[C@H](Cc1c[nH]c2ccccc12)NC(=O)[C@H](CC(N)=O)NC(=O)[C@@H](NC(=O)[C@H](Cc1ccccc1)NC(=O)[C@H](CCC(=O)O)NC(=O)C(C)(C)NC(=O)[C@H](C)NC(=O)[C@H](C)NC(=O)[C@H](CCC(N)=O)NC(=O)[C@H](CCCCN)NC(=O)[C@H](CC(=O)O)NC(=O)[C@H](CC(C)C)NC(=O)[C@H](Cc1ccc(O)cc1)NC(=O)[C@@H](NC(=O)[C@H](CO)NC(=O)[C@H](Cc1ccc(O)cc1)NC(=O)[C@H](CC(=O)O)NC(=O)[C@H](CO)NC(=O)[C@@H](NC(=O)[C@H](Cc1ccccc1)NC(=O)[C@@H](NC(=O)CNC(=O)[C@H](CCC(=O)O)NC(=O)CSCC(=O)NCCn1ccccc1=O)[C@@H](C)O)[C@@H](C)O)[C@@H](C)CC)C(C)C)C(N)=O)C(=O)O [Compound 52] | 101% | < 0.1 nM | 101% | < 0.1 nM | 56 to 61% | 1 to 10 nM | 56 to 61% | 1 to 10 nM |  |  |  |  |
| CC[C@H](C)[C@H](NC(=O)[C@H](CO)NC(=O)[C@H](Cc1ccc(O)cc1)NC(=O)[C@H](CC(=O)O)NC(=O)[C@H](CO)NC(=O)[C@@H](NC(=O)[C@H](Cc1ccccc1)NC(=O)[C@@H](NC(=O)CNC(=O)[C@H](CCC(=O)O)NC(=O)CSCC(=O)NCCN1C(=O)c2ccc([N+](=O)[O-])cc2C1=O)[C@@H](C)O)[C@@H](C)O)C(=O)N[C@@H](Cc1ccc(O)cc1)C(=O)N[C@@H](CC(C)C)C(=O)N[C@@H](CC(=O)O)C(=O)N[C@@H](CCCCN)C(=O)N[C@@H](CCC(N)=O)C(=O)N[C@@H](C)C(=O)N[C@@H](C)C(=O)NC(C)(C)C(=O)N[C@@H](CCC(=O)O)C(=O)N[C@@H](Cc1ccccc1)C(=O)N[C@H](C(=O)N[C@@H](CC(N)=O)C(=O)N[C@@H](Cc1c[nH]c2ccccc12)C(=O)N[C@@H](CC(C)C)C(=O)N[C@@H](CC(C)C)C(=O)N[C@@H](C)C(=O)NCC(=O)NCC(=O)N1CCC[C@H]1C(=O)N[C@@H](CO)C(=O)N[C@@H](CO)C(=O)NCC(=O)N[C@@H](C)C(=O)N1CCC[C@H]1C(=O)N1CCC[C@H]1C(=O)N1CCC[C@H]1C(=O)N[C@@H](CO)C(=O)N[C@@H](CCCCN)C(N)=O)C(C)C [Compound 107] | 57% |  | 57% |  | 124% |  | 124% |  | 10 to 100 nM | 10 to 100 nM | 0.1 to 1 nM | 0.1 to 1 nM |
| CCCCCCCCCCCCCCCC(=O)N[C@@H](CCC(=O)NCCCC[C@H](NC(=O)[C@H](CO)NC(=O)[C@@H]1CCCN1C(=O)[C@@H]1CCCN1C(=O)[C@@H]1CCCN1C(=O)[C@H](C)NC(=O)CNC(=O)[C@H](CO)NC(=O)[C@H](CO)NC(=O)[C@@H]1CCCN1C(=O)CNC(=O)CNC(=O)[C@H](C)NC(=O)[C@H](CC(C)C)NC(=O)[C@H](CC(C)C)NC(=O)[C@H](Cc1c[nH]c2ccccc12)NC(=O)[C@H](CC(N)=O)NC(=O)[C@@H](NC(=O)[C@H](Cc1ccccc1)NC(=O)[C@H](CCC(=O)O)NC(=O)C(C)(C)NC(=O)[C@@H](NC(=O)[C@H](C)NC(=O)[C@H](CCC(N)=O)NC(=O)[C@H](CCCCN)NC(=O)[C@H](CC(=O)O)NC(=O)[C@H](CC(C)C)NC(=O)[C@H](Cc1ccc(O)cc1)NC(=O)[C@@H](NC(=O)[C@H](CO)NC(=O)[C@H](Cc1ccc(O)cc1)NC(=O)[C@H](CC(=O)O)NC(=O)[C@H](CO)NC(=O)[C@@H](NC(=O)[C@H](Cc1ccccc1)NC(=O)[C@@H](NC(=O)CNC(=O)[C@H](CCC(=O)O)NC(=O)CSCC(=O)NCCN1C(=O)CSC1=O)[C@@H](C)O)[C@@H](C)O)[C@@H](C)CC)C(C)C)C(C)C)C(N)=O)C(=O)O [Compound 80] (X2-EGTFTSDYSIYLDKQAV[Aib]EFVNWLLAGGPSSGAPPPSK([γGlu-Palmitoyl])-NH2) | 92% | 0.1 to 1 nM | 92% | 0.1 to 1 nM | 73% | 1 to 10 nM | 73% | 1 to 10 nM |  |  |  |  |
| CCCCCCCCCCCCCCCC(=O)N[C@@H](CCC(=O)NCCCC[C@H](NC(=O)[C@H](CO)NC(=O)[C@@H]1CCCN1C(=O)[C@@H]1CCCN1C(=O)[C@@H]1CCCN1C(=O)[C@H](C)NC(=O)CNC(=O)[C@H](CO)NC(=O)[C@H](CO)NC(=O)[C@@H]1CCCN1C(=O)CNC(=O)CNC(=O)[C@H](C)NC(=O)[C@H](CC(C)C)NC(=O)[C@H](CC(C)C)NC(=O)[C@H](Cc1c[nH]c2ccccc12)NC(=O)[C@H](CC(N)=O)NC(=O)[C@@H](NC(=O)[C@H](Cc1ccccc1)NC(=O)[C@H](CCC(=O)O)NC(=O)C(C)(C)NC(=O)[C@H](C)NC(=O)[C@H](C)NC(=O)[C@H](CCC(N)=O)NC(=O)[C@H](CCCCN)NC(=O)[C@H](CC(=O)O)NC(=O)[C@H](CC(C)C)NC(=O)[C@H](Cc1ccc(O)cc1)NC(=O)[C@@H](NC(=O)[C@H](CO)NC(=O)[C@H](Cc1ccc(O)cc1)NC(=O)[C@H](CC(=O)O)NC(=O)[C@H](CO)NC(=O)[C@@H](NC(=O)[C@H](Cc1ccccc1)NC(=O)[C@@H](NC(=O)CNC(=O)[C@H](CCC(=O)O)NC(=O)CSCC(=O)NCCN1C(=O)CC2(CCCC2)C1=O)[C@@H](C)O)[C@@H](C)O)[C@@H](C)CC)C(C)C)C(N)=O)C(=O)O [Compound 102] | 104% |  | 104% |  | 34% |  | 34% |  | 1 to 10 nM | 1 to 10 nM | 10 to 100 nM | 10 to 100 nM |
| CCCCCCCCCCCCCCCC(=O)N[C@@H](CCC(=O)NCCCC[C@H](NC(=O)[C@H](CO)NC(=O)[C@@H]1CCCN1C(=O)[C@@H]1CCCN1C(=O)[C@@H]1CCCN1C(=O)[C@H](C)NC(=O)CNC(=O)[C@H](CO)NC(=O)[C@H](CO)NC(=O)[C@@H]1CCCN1C(=O)CNC(=O)CNC(=O)[C@H](C)NC(=O)[C@H](CC(C)C)NC(=O)[C@H](CC(C)C)NC(=O)[C@H](Cc1c[nH]c2ccccc12)NC(=O)[C@H](CC(N)=O)NC(=O)[C@@H](NC(=O)[C@H](Cc1ccccc1)NC(=O)[C@H](CCC(=O)O)NC(=O)C(C)(C)NC(=O)[C@H](C)NC(=O)[C@H](C)NC(=O)[C@H](CCC(N)=O)NC(=O)[C@H](CCCCN)NC(=O)[C@H](CC(=O)O)NC(=O)[C@H](CC(C)C)NC(=O)[C@H](Cc1ccc(O)cc1)NC(=O)[C@@H](NC(=O)[C@H](CO)NC(=O)[C@H](Cc1ccc(O)cc1)NC(=O)[C@H](CC(=O)O)NC(=O)[C@H](CO)NC(=O)[C@@H](NC(=O)[C@H](Cc1ccccc1)NC(=O)[C@@H](NC(=O)CNC(=O)[C@H](CCC(=O)O)NC(=O)CSCC(=O)NCCN1C(=O)CCC(c2ccccc2)C1=O)[C@@H](C)O)[C@@H](C)O)[C@@H](C)CC)C(C)C)C(N)=O)C(=O)O (mixture of isomers) [Compound 95] | 84% |  | 84% |  | 20% |  | 20% |  | 10 to 100 nM | 10 to 100 nM | 1 to 10 nM | 10 to 100 nM |
| CCCCCCCCCCCCCCCC(=O)N[C@@H](CCC(=O)NCCCC[C@H](NC(=O)[C@H](CO)NC(=O)[C@@H]1CCCN1C(=O)[C@@H]1CCCN1C(=O)[C@@H]1CCCN1C(=O)[C@H](C)NC(=O)CNC(=O)[C@H](CO)NC(=O)[C@H](CO)NC(=O)[C@@H]1CCCN1C(=O)CNC(=O)CNC(=O)[C@H](C)NC(=O)[C@H](CC(C)C)NC(=O)[C@H](CC(C)C)NC(=O)[C@H](Cc1c[nH]c2ccccc12)NC(=O)[C@H](CC(N)=O)NC(=O)[C@@H](NC(=O)[C@H](Cc1ccccc1)NC(=O)[C@H](CCC(=O)O)NC(=O)C(C)(C)NC(=O)[C@H](C)NC(=O)[C@H](C)NC(=O)[C@H](CCC(N)=O)NC(=O)[C@H](CCCCN)NC(=O)[C@H](CC(=O)O)NC(=O)[C@H](CC(C)C)NC(=O)[C@H](Cc1ccc(O)cc1)NC(=O)[C@@H](NC(=O)[C@H](CO)NC(=O)[C@H](Cc1ccc(O)cc1)NC(=O)[C@H](CC(=O)O)NC(=O)[C@H](CO)NC(=O)[C@@H](NC(=O)[C@H](Cc1ccccc1)NC(=O)[C@@H](NC(=O)CNC(=O)[C@H](CCC(=O)O)NC(=O)CSCC(=O)NCCN1CC[C@@H](O)C1=O)[C@@H](C)O)[C@@H](C)O)[C@@H](C)CC)C(C)C)C(N)=O)C(=O)O [Compound 47] | 100% | < 0.1 nM | 100% | < 0.1 nM | 24% | 1 to 10 nM | 24% | 10 to 100 nM |  |  |  |  |
